Compound in assay [1]: COc1cc(CCc2cc(NC(=O)c3ccc(N4CC(C)NC(C)C4)cc3)n[nH]2)cc(OC)c1 [AZD4547]
The assay can be described thus: surviving fraction relative to DMSO-only wells; higher = less growth inhibition. Particulars: exposure time: 5 days. A digest of the protocol: (§1)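 Tumour cell lines were seeded in log phase at 250–500 cells per well into 384-well plates. Starting 24 hours later, inhibitors were present continuously for five days at 0.5, 1, 5, 10, 50, 100, 500 and 1000 nM. Surviving fraction, from CellTiter-Glo luminescence, is normalised to the median of DMSO-only wells. Three screens per line were required, with replicate Pearson r >0.7 and median Z' >0.3 for a line to be kept.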

Compound in assay [2]: CN(Cc1cnc2nc(N)nc(N)c2n1)c1ccc(C(=O)N[C@@H](CCC(=O)O)C(=O)O)cc1 [METHOTREXATE]
The assay is described as above. Particulars: exposure time: 5 days. The procedure, abridged:
as §1

± gives the standard deviation of the averaged measurements.

On to KPD BONE, for which the surviving fraction in assay [1] (0.5 nM) was 0.961 ± 0.049; in assay [1] (1 nM), 0.945 ± 0.078; in assay [1] (5 nM), 0.991 ± 0.094; in assay [1] (10 nM), 0.984 ± 0.024; in assay [1] (50 nM), 1 ± 0.067; in assay [1] (100 nM), 0.956 ± 0.088. Further, the surviving fraction came to 0.804 ± 0.039 in assay [1] (500 nM); 0.642 ± 0.036 in assay [1] (1000 nM); 1.06 ± 0.061 in assay [2] (0.5 nM); 1.02 ± 0.043 in assay [2] (1 nM); 1.12 ± 0.035 in assay [2] (5 nM); 1.09 ± 0.076 in assay [2] (10 nM). In addition, the surviving fraction turned out to be 1.08 ± 0.087 in assay [2] (50 nM), 1.17 ± 0.021 in assay [2] (100 nM), 1.02 ± 0.024 in assay [2] (500 nM) and 1.05 ± 0.047 in assay [2] (1000 nM).
Turning to LM7 BONE, the surviving fraction came to 0.914 ± 0.098 in assay [1] (0.5 nM); 0.959 ± 0.086 in assay [1] (1 nM); 1.07 ± 0.044 in assay [1] (5 nM); 0.982 ± 0.048 in assay [1] (10 nM); 0.939 ± 0.064 in assay [1] (50 nM); 0.985 ± 0.12 in assay [1] (100 nM). Moreover, the surviving fraction came to 0.762 ± 0.034 in assay [1] (500 nM); 0.571 ± 0.086 in assay [1] (1000 nM); 1.061 ± 0.0066 in assay [2] (0.5 nM); 0.974 ± 0.085 in assay [2] (1 nM); 1.13 ± 0.015 in assay [2] (5 nM); 1.17 ± 0.06 in assay [2] (10 nM). Also, the surviving fraction in assay [2] (50 nM) was 0.919 ± 0.033; in assay [2] (100 nM), 0.885 ± 0.065; in assay [2] (500 nM), 0.699 ± 0.042; in assay [2] (1000 nM), 0.64 ± 0.023.
MCF7 BREAST: the surviving fraction amounted to 0.925 ± 0.062 in assay [1] (0.5 nM); 0.918 ± 0.038 in assay [1] (1 nM); 0.948 ± 0.074 in assay [1] (5 nM); 0.931 ± 0.036 in assay [1] (10 nM); 1 ± 0.069 in assay [1] (50 nM); 0.9181 ± 0.0017 in assay [1] (100 nM). The surviving fraction in assay [1] (500 nM) turned out to be 0.921 ± 0.066; in assay [1] (1000 nM), 0.924 ± 0.063; in assay [2] (0.5 nM) it was 0.973 ± 0.011; in assay [2] (1 nM) it was 0.989 ± 0.05; in assay [2] (5 nM) it was 0.734 ± 0.048; in assay [2] (10 nM) it was 0.587 ± 0.033. For the same test system, the surviving fraction in assay [2] (50 nM) worked out at 0.569 ± 0.011; in assay [2] (100 nM), 0.588 ± 0.035; in assay [2] (500 nM), 0.573 ± 0.039; in assay [2] (1000 nM), 0.572 ± 0.024.
Consider MDAMB134 BREAST, for which the surviving fraction stood at 1.04 ± 0.28 in assay [1] (0.5 nM); 1.04 ± 0.088 in assay [1] (1 nM); 1.01 ± 0.083 in assay [1] (5 nM); 0.922 ± 0.078 in assay [1] (10 nM); 0.973 ± 0.14 in assay [1] (50 nM); 0.899 ± 0.089 in assay [1] (100 nM). The surviving fraction is 1.04 ± 0.028 in assay [1] (500 nM); 1.05 ± 0.17 in assay [1] (1000 nM); 0.929 ± 0.039 in assay [2] (0.5 nM); 0.947 ± 0.04 in assay [2] (1 nM); 0.899 ± 0.052 in assay [2] (5 nM); 0.848 ± 0.027 in assay [2] (10 nM). Moreover, the surviving fraction amounted to 1.12 ± 0.21 in assay [2] (50 nM), 0.858 ± 0.073 in assay [2] (100 nM), 0.75 ± 0.06 in assay [2] (500 nM) and 0.75 ± 0.011 in assay [2] (1000 nM).
Consider MDAMB157 BREAST, for which the surviving fraction in assay [1] (0.5 nM) was determined as 0.981 ± 0.036; in assay [1] (1 nM), 0.967 ± 0.12; in assay [1] (5 nM) it was 0.932 ± 0.069; in assay [1] (10 nM) it was 0.768 ± 0.035; in assay [1] (50 nM) it was 0.642 ± 0.13; in assay [1] (100 nM) it was 0.537 ± 0.048. Further, the surviving fraction was 0.562 ± 0.1 in assay [1] (500 nM); 0.374 ± 0.039 in assay [1] (1000 nM); 1.02 ± 0.12 in assay [2] (0.5 nM); 0.908 ± 0.012 in assay [2] (1 nM); 1.05 ± 0.023 in assay [2] (5 nM); 1.02 ± 0.09 in assay [2] (10 nM). In addition, the surviving fraction in assay [2] (50 nM) came to 0.946 ± 0.01; in assay [2] (100 nM) it was 0.947 ± 0.06; in assay [2] (500 nM), 0.839 ± 0.044; in assay [2] (1000 nM), 0.857 ± 0.076.
For MDAMB231 BREAST, the surviving fraction came to 0.973 ± 0.018 in assay [1] (0.5 nM); 1.02 ± 0.025 in assay [1] (1 nM); 1.009 ± 0.0064 in assay [1] (5 nM); 1.02 ± 0.033 in assay [1] (10 nM); 1.02 ± 0.019 in assay [1] (50 nM); 1.06 ± 0.032 in assay [1] (100 nM). In addition, the surviving fraction stood at 1.06 ± 0.035 in assay [1] (500 nM); 1.06 ± 0.028 in assay [1] (1000 nM); 0.982 ± 0.023 in assay [2] (0.5 nM); 0.967 ± 0.02 in assay [2] (1 nM); 0.988 ± 0.026 in assay [2] (5 nM); 0.986 ± 0.026 in assay [2] (10 nM). Besides, the surviving fraction was found to be 1.02 ± 0.02 in assay [2] (50 nM), 1.01 ± 0.044 in assay [2] (100 nM), 0.811 ± 0.017 in assay [2] (500 nM) and 0.509 ± 0.015 in assay [2] (1000 nM).

Values taken from the supplement of paper PMC6045584.
